The target in assay [1] is T1, human Smo (amino acids 181-787) (Homo sapiens, UniProt Q99835).
T1 construct: expressed in transfected cells; membrane preparation
Kind of assay: Smo radioligand competition binding assay (displacement of 3H-PF-03451358 from HEK293 membranes). Particulars: 0.05 μM test compound; displacement of 3H-PF-03451358; read-out: SMO % inh. @ 0.05 μM. Summed up:
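Membranes (40 μg protein/well) from HEK293 expressing murine Igk-leader-fused Smo 181-787 incubated 2 h at room temperature with 3 nM 3H-PF-03451358 in Tris pH 7.5/NaCl/MgCl2/EDTA/BSA buffer; filter-bound counts by scintillation. Nonspecific binding with 30 μM cold PF-03451358; IC50 from four-parameter fit of % inhibition.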
(In a radioligand displacement assay an active substance lowers the binding of a labelled ligand.)

The next assay relates to Gli-Luc/MEF cells (Smo). Kind of assay: Gli-Luc/MEF assay (Shh-stimulated luciferase reporter under the Gli response element). In kind it is cell-based, mouse. To be noted: Mus musculus, MEF, 48 h. A digest of the protocol: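 Mouse Gli-Luc/MEF cells dosed with compound (3-fold series, […]) plus 2 μg/mL recombinant mouse Shh, then incubated 48 h at 37° C, 5% CO2. Bright-Glo luminescence read; IC50 calculated from inhibition of Shh-stimulated luciferase.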
(In general: Reporter assays use an easily measured gene product as a stand-in for the process of interest.)

T1 sequence (Q99835 181-787): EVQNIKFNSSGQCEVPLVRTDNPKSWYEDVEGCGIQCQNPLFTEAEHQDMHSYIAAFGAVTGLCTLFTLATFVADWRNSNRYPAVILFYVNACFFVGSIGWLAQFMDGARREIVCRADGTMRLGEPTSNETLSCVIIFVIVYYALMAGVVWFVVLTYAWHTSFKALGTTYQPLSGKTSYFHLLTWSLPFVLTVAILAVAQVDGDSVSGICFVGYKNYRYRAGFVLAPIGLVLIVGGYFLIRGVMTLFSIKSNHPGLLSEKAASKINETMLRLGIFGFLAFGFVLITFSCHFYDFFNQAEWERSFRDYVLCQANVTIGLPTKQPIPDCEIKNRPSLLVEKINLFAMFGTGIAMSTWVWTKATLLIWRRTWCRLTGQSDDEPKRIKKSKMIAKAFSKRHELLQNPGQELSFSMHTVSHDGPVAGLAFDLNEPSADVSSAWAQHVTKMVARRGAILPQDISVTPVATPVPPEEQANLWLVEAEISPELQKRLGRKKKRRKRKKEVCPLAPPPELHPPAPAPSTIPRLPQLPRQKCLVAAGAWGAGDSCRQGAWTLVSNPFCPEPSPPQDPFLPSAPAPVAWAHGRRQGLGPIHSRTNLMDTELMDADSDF

With `Cn1c(-c2cc(N3CC(c4ncccn4)C3)ncc2Cl)nc2ccccc21` [Example A-131, 2-[5-chloro-2-(3-pyrimidin-2-ylazetidin-1-yl)pyridin-4-yl]-1-methyl-1H-benzimidazole], the inhibition at 0.05 µM in assay [1] was found to be 52%. The IC50 with Gli-Luc/MEF cells (Smo) was found to be 0.161 µM.

Broadly, the IC50 is the concentration that inhibits the measured activity by half. High values mean lower potency, low ones higher potency.

The values are drawn from patent US20120157471A1, “BENZIMIDAZOLE DERIVATIVES” (PFIZER INC., priority 2009, published 2012).
